Reference: article PMC12175177 (Frontiers in Pharmacology, 2025)

Test system: SARS-CoV-2 A2.5 variant
Assay: Pre- and post-exposure assay, A2.5 variant in Vero E6 cells
Format: cell-based

## CCN(CC)CCCC(C)Nc1ccnc2cc(Cl)ccc12 (stereo not shown) [Chloroquine diphosphate (CQ), Chloroquine diphosphate]
  antiviral effect, treatment 1 hour post-infection, A2.5: dose-dependent antiviral effect
  effect on viral replication, treatment 1 hour pre-infection, A2.5: did not influence the viral replication

## COc1cc(NC(C)CCCN)c2ncccc2c1 (stereo not shown) [Primaquine Phosphate (PQ), Primaquine Phosphate]
  antiviral effect, treatment 1 hour post-infection, A2.5: dose-dependent antiviral effect
  effect on viral replication, treatment 1 hour pre-infection, A2.5: did not influence the viral replication
